Laboratory results taken from article PMC11945486, “TAS1R2/TAS1R3 Single-Nucleotide Polymorphisms Affect Sweet Taste Receptor Activation by Sweeteners: The SWEET Project” (Nutrients, 2025).
No end group written: not given here.

Target: T1, human TAS1R2-A574T/TAS1R3-WT (Homo sapiens, UniProt Q7RTX0+Q8TE23, A574T)
T1 construct: expressed in transfected cells; host or cells: HEK293T-Gα16gust44
T1 sequence (Q8TE23 20-839 A574T): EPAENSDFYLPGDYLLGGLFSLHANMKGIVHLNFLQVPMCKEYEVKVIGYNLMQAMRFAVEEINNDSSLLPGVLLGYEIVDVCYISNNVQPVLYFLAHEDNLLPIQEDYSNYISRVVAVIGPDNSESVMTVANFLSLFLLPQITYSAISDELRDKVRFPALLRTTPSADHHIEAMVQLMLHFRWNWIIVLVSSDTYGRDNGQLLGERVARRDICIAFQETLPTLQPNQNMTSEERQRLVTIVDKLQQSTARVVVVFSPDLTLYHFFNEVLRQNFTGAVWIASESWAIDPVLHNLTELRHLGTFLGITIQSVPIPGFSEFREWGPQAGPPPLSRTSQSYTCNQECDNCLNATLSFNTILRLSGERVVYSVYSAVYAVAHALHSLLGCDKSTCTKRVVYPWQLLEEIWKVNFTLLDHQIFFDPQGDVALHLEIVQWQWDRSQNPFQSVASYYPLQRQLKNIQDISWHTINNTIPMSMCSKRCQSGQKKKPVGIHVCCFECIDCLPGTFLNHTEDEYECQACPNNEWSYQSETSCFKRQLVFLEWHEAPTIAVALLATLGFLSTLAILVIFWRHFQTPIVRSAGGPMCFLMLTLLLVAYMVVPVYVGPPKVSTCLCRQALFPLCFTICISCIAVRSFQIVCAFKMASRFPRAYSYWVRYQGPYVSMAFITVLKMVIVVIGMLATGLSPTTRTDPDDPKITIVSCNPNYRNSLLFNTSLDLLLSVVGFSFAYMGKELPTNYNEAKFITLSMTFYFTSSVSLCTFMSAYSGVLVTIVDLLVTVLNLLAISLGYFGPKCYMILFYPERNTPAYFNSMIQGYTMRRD
T1 sequence (Q7RTX0 21-852): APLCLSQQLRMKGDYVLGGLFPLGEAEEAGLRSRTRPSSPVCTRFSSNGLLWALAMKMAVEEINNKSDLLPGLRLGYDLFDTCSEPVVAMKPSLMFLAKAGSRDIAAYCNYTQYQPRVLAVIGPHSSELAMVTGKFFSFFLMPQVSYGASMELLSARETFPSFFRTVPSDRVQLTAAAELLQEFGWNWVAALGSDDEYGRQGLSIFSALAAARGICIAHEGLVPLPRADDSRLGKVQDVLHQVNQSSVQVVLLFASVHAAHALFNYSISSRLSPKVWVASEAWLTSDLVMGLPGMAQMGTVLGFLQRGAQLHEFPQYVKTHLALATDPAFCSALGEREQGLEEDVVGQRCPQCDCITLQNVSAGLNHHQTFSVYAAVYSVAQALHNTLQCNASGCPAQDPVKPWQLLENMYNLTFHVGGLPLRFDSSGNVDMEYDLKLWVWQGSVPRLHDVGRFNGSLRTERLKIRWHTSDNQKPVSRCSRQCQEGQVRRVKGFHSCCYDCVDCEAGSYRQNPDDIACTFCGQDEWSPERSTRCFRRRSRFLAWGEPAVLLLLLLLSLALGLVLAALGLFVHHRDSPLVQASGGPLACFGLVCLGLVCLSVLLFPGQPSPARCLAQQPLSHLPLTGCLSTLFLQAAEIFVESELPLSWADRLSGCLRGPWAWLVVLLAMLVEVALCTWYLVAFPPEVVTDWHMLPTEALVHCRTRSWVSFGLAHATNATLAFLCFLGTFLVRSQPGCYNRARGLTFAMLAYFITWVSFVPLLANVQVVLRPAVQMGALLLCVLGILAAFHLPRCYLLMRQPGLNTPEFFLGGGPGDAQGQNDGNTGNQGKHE
Assay: Calcium mobilisation assay, TAS1R2 variant A574T with TAS1R3-WT
Assay type: cell-based
Conditions: for Max ΔF/F0: maximal signal amplitude
Text: The coding sequences for TAS1R2 and TAS1R3 were commercially synthesised, and the human codon was optimised for expression in human cells. The coding sequences of human TAS1R2 and TAS1R3 were subcloned and inserted into the mammalian expression vectors pcDNA6/myc-HisA and pcDNA4/myc-HisA (Invitrogen; Thermo Fisher Scientific; Illkirch, France) between the EcoRI and NotI restriction sites, generating the plasmids pcDNA6-TAS1R2 and pcDNA4-TAS1R3, respectively. To increase protein expression in mammalian cells, an upstream start codon was used, which was a sequence called MAX, corresponding to the QBI SP163 element also described in pcDNA4-HisMax (Invitrogen; Thermo Fisher Scientific; Illkirch, France). To measure the expression level of the receptor by immunohistochemistry, we used the FLAG sequence ([…]) in the C-terminal position, which encodes the FLAG tag epitope. SNP variants of TAS1R2 and TAS1R3 were constructed based on […], respectively, using site-directed mutagenesis (Genewiz; Leipzig, Germany).
The HEK293T cells were kindly provided by Jay P. Slack (Givaudan Flavors Corporation; Cincinnati, OH, USA). HEK293T cells stably transfected with Gα16gust44 [43, 67] were seeded in poly-D-lysine-coated clear-bottom black 96-well plates (0.35 × 10^5 cells/well) in high-glucose DMEM supplemented with 2 mM GlutaMAX, 10% dialysed foetal bovine serum with penicillin/streptomycin and G418 (400 μg/mL) at 37 °C and 6.3% CO2 in a humidified atmosphere as previously reported. […] As a negative control, HEK293T cells were mock-transfected with the empty expression vector. After a further 24 h of incubation, the HEK293T cells were washed with C1 buffer (130 mM NaCl, 5 mM KCl, 10 mM HEPES pH 7.4 and 2 mM CaCl2). The 96-well plates containing the cells were then stimulated with sweet-tasting compounds. […] Different concentration ranges were tested depending on the sweet compound injected. The Ca^2+ changes were expressed as fractional changes in fluorescent light intensity: ΔF/F = (F − F0)/F0, where F was the fluorescent light intensity at each point, and F0 was the value of emitted fluorescent light prior to stimulus application. To calculate dose–response relationships, the changes in fluorescence upon stimulus application were averaged, mock-subtracted and baseline-corrected. The dose–response data obtained were adjusted using a 4-parameter logistic equation. The half-maximal effective concentrations (EC50 values) and maximal signal amplitudes were calculated using SigmaPlot software (version 15.0) (Systat Software; San Jose, CA, USA).
For in vitro calcium mobilisation assay performed on hTAS1R2-SNPs, hTAS1R3-SNPs and mTAS1R3-I60T, 6 to 7 concentrations were tested for each sweet compound, plus buffer alone. All concentration–receptor combinations were measured in duplicate, and each experiment was repeated at least 4 times (8 wells/concentration). Results were expressed for each concentration as ΔF/F mean ± SEM and represented as dose–response curves.

Molecule	EC50 [µM]	R1 = Variant EC50/WT EC50	Max ΔF/F0
CC1=CC(=O)NS(=O)(=O)O1 [Acesulfame K, acesulfame K]	658 ± 65	0.9	0.34 ± 0.02
O=S(=O)(O)NC1CCCCC1 [Cyclamate, cyclamate]	1780 ± 49		
C[C@H](CC[C@@H](O[C@@H]1O[C@H](CO[C@@H]2O[C@H](CO)[C@@H](O)[C@H](O)[C@H]2O)[C@@H](O)[C@H](O)[C@H]1O[C@@H]1O[C@H](CO)[C@@H](O)[C@H](O)[C@H]1O)C(C)(C)O)[C@H]1CC[C@@]2(C)[C@@H]3CC=C4[C@@H](CC[C@H](O[C@@H]5O[C@H](CO[C@@H]6O[C@H](CO)[C@@H](O)[C@H](O)[C@H]6O)[C@@H](O)[C@H](O)[C@H]5O)C4(C)C)[C@]3(C)[C@H](O)C[C@]12C [Mogroside V, mogroside V]	16.7 ± 3.1	1.0	1.25 ± 0.08
COc1ccc(CCC(=O)c2c(O)cc(O[C@@H]3O[C@H](CO)[C@@H](O)[C@H](O)[C@H]3O[C@@H]3O[C@@H](C)[C@H](O)[C@@H](O)[C@H]3O)cc2O)cc1O [NHDC, neohesperidin dihydrochalcone]	73.4 ± 8.4	1.0	0.81 ± 0.03
COC(=O)[C@H](Cc1ccccc1)NC(=O)[C@H](CC(=O)O)NCCC(C)(C)C [Neotame]	0.73 ± 0.03	0.9	0.60 ± 0.01
C=C(C)[C@@H]1CC=C(/C=N/O)CC1 [Perillartine, perillartine]	19.2 ± 0.9	1.1	1.39 ± 0.02
C=C1C[C@@]23CC[C@H]4[C@@](C)(CCC[C@@]4(C)C(=O)O[C@@H]4O[C@H](CO)[C@@H](O)[C@H](O[C@@H]5O[C@H](CO)[C@@H](O)[C@H](O)[C@H]5O)[C@H]4O[C@@H]4O[C@H](CO)[C@@H](O)[C@H](O)[C@H]4O)[C@@H]2CC[C@]1(O[C@@H]1O[C@H](CO)[C@@H](O)[C@H](O[C@@H]2O[C@H](CO)[C@@H](O)[C@H](O)[C@H]2O)[C@H]1O[C@@H]1O[C@H](CO)[C@@H](O)[C@H](O)[C@H]1O)C3 [Rebaudioside M, rebaudioside M]	16.3 ± 0.5	1.0	1.08 ± 0.01
OC[C@H]1O[C@H](O[C@]2(CCl)O[C@H](CCl)[C@@H](O)[C@@H]2O)[C@H](O)[C@@H](O)[C@H]1Cl [Sucralose]	81 ± 2	0.9	0.63 ± 0.01
brazzein (QDKCKKVYENYPVSKCQLANQCNYDCKLDKHARSGECFYDEKRNLQCICDYCEY; ends and bridges not checked; cysteine pairing not given here; UniProt P56552 1-54, looked up) [sweet-tasting protein obtained by recombinant production using the yeast Pichia pastoris]		1.2	1.14 ± 0.01
thaumatin		1.9	1.37 ± 0.02
thaumatin (protein, Eight disulfides, sweet-tasting plant protein, E957) ATFEIVNRCSYTVWAAASKGDAALDAGGRQLNSGESWTINVEPGTKGGKIWARTDCYFDDSGSGICKTGDCGGLLRCKRFGRPPTTLAEFSLNQYGKDYIDISNIKGFNVPMDFSPTTRGCRGVRCAADIVGQCPAKLKAPGGGCNDACTVFQTSEYCCTTGKCGPTEYSRFFKRLCPDAFSYVLDKPTTVTCPGSSNYRVTFCPTA	14.1 ± 0.3		
